According to article PMC6030159 (Scientific Reports, 2018):

What was measured:
[1] = tested on: T1, MAX:MXD1(MAD1); assay: GLuc MAD:MAX in COS-7 cells; type: cell-based; details: 12.5 µM
T1 construct: full-length MXD1(MAD1) or full-length MAX cDNA; expressed in transfected cells; host or cells: COS-7
Description: The protein fragment complementation assay using the Gaussia luciferase has been described. 0.2–0.4 μg of each GLuc-construct (see Supplementary Information) together with 0.05–0.2 μg pCMV-Luc (Firefly luciferase) were transiently transfected into HEK293 or COS-7 cells in 6-well plates. 24 hours later cells were treated with compound (10–25 μM) or DMSO. After another 17 hours, the cells were harvested and lyzed in passive lysis buffer (Promega) supplemented with complete protease inhibitor (Roche). After 60 min incubation at room temperature 20 μM D-luciferin was added (substrate of Firefly luciferase) and luminescence was measured in a Lumat LB9501 (Berthold) or OmegaFluostar (BMG Labtech) luminometer. Directly after, Gaussia luciferase substrate Coelenterazine (Promega) was added to a final concentration of 20 μM in a mixture with “Stop n’ Glow” (Promega) and the luciferase activity was measured. The ratio between Gaussia and Firefly luciferase values were calculated and normalized to DMSO-treated control cells.
Supplementary Figure Legends
Supplemental Figure S1. Schematic presentations of MYC and MAX protein constructs. A) BiFC constructs MYC-YFP-N and MAX-YFP-C, containing full-length MYC and MAX fused with N-terminal and C-terminal fragments of yellow fluorescent protein (YFP), respectively 3.
In the MYC deletion mutant MYCΔbHLHZip-YFP-N, the bHLHZip domain, residues 352-432, has been truncated 3. B) Gaussia princeps Luciferase (GLuc) constructs MYC-GLuc-C and MAX-GLuc-N, containing full-length MYC and MAX fused with N-terminal and C-terminal fragments of GLuc, respectively. MYC was truncated at residue 411-432 in order to produce the deletion mutant MYCΔZ ip-GLuc-C. […]
Supplemental Figure S2. […] The cells were reseeded and treated with vehicle or 25 µM of each compound, after which fluorescence was measured 24 hours post-treatment and the YFP/CFP ratio calculated and normalized to DMSO-treated cells.
B) MAD:MAX GLuc assay. MAD-GLuc-C and MAX-GLuc-N constructs were cotransfected into COS-7 cells together with CMV-Luc and treated with MYCMIs (12.5 µM) and analyzed […]

[2] = tested on: T2, FRA1:JUN; assay: isPLA endogenous FRA1:JUN; type: cell-based, human; details: 10 μM
T2 construct: endogenous in cells
Description: The isPLA assay has been described. Antibodies used are listed in Supplementary Information. Briefly, cells were grown on collagen-coated chamber slides (Falcon), and treated with 1–10 μM of compounds, respectively, for 16 hours, then washed twice with PBS and fixed in ice cold methanol for 5–15 min at room temperature. Slides were washed in PBS with 0.05% Tween 20 and incubated in blocking buffer after which isPLA was performed using the Duolink® in situ PLA kit (Sigma-Aldrich) according to the manufacturer’s protocol. DNA was stained with DAPI. Incubation with primary antibodies were performed at +4 °C overnight. Images were taken using an Axiovert 200M inverted microscope (Zeiss) and fluorescent dots were quantified using semi-automated analysis in ImageJ (http://imagej.net) and averaged to number of dots per cell.

[3] = tested on: MYC-driven transcription (ODC1, RSG16, CR2); assay: RT-qPCR of MYC target genes in U2OS-MYC-ER cells; type: cell-based; details: 10 μM, 24 hours
Description: To investigate the effect of the compounds on MYC-driven transcription, we utilized U2OS cells expressing a MYC-estrogen receptor (MYC-ER) fusion protein, the activity of which is regulated by the ligand 4-hydroxytamoxifen (HOT)[43].
These assays were performed essentially as described in[67],[68]. For further information on immunohistochemistry, and on primers and antibodies, see Supplementary Information.

[4] = biological target: MXD1 (MAD1) bHLHZip (Homo sapiens, UniProt Q05195); assay: SPR binding to MXD1 (MAD1)
Sequence of MXD1 (MAD1) bHLHZip (Q05195 56-137 limits assumed): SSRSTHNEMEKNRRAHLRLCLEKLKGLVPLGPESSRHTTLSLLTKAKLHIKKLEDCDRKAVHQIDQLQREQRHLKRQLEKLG
Description: The MYC SPR assay was carried out as described above with MYCbHLHZip immobilized to a level of 800–1000 RU. For kinetic binding experiments, a Langmuir 1:1 binding event was applied using the Biacore T200 Evaluation Software 2.0 (GE Healthcare) to determine association (ka) and dissociation (kd) constants of the compound and to calculate affinity (KD) by the formula; KD = kd/ka. Binding responses from equilibrium binding experiments were plotted against compound concentration and KD values were determined at 50% of the theoretical Rmax with the formula Rmax = (MW analyte/MW ligand) × immobilized ligand level on the chip (RU) × stoichiometry (1:1). Same coupling method described above was used to immobilize the control proteins. MAX was immobilized to approximately 2000 RU, MAD to 600 RU, BSA to 1000 RU, p53 to 3000 RU and BCL-XL, to 500 RU.

SMILES | effect on MAX:MXD1(MAD1) interaction (GLuc) [1] | effect on FRA1:JUN interaction (isPLA) [2] | HOT-induced expression of MYC target genes ODC1, RSG16 and CR2 [3] | binding to MXD1 (MAD1) (SPR) [4]
CCCCN(c1ccccc1)c1ncnc2c1cnn2C [MYCMI-11] | did not significantly affect | did not significantly affect | reduced expression of the genes to a lesser extent | –
O=C(O)/C=C/C(=O)Nc1cccc2c1-c1ccccc1C2=O [MYCMI-14] | did not significantly affect | did not significantly affect | reduced expression of the genes to a lesser extent | –
CCOc1ccc2nc3cc(/N=N/c4ccc(N)nc4N)ccc3c(N)c2c1 [MYCMI-6] | did not significantly affect | did not significantly affect | significantly reduced | negligible
